Experimental data reported in patent US9145391B2, “Bipyridylaminopyridines as Syk inhibitors” (Merck Sharp & Dohme Corp., priority 2011, dated 2015).
pIC50: −log10 of the molar value.

Target: recombinant human GST-Syk (Homo sapiens (Human), UniProt P43405)
Experiment: Homogeneous Time-Resolved Fluorescence (HTRF) assay for the recombinant human Syk enzyme
Format: biochemical
Conditions: recombinant human GST-Syk 5 pM, ATP 25 μM, read-out: rhSyk IC50
How it was run: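 Recombinant GST-hSyk fusion protein kinase activity was read by HTRF. Reactions were started with biotinylated substrate peptide at 250 nM final, Mg 5 mM final and ATP 25 μM final. Potency derived from inhibition of substrate phosphorylation.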

Row | SMILES | pIC50
1 | Cc1cc(Nc2cc(C(F)F)ccn2)nc(-c2ccc(C(C)(O)[C@H]3CC[C@H](C(=O)OC(C)OC(=O)OC4CCCCC4)CC3)nc2)c1 (single isomer, unassigned) [Example 20-9, 1-{[(cyclohexyloxy)carbonyl]oxy}ethyl trans-4-[(1R or 1S)-1-(6-{[4-(difluoromethyl)pyridin-2-yl]amino}-4-methyl-2,3′-bipyridin-6′-yl)-1-hydroxyethyl] cyclohexanecarboxylate] | 6.85
2 | Cc1cc(Nc2cc(C(F)(F)F)ccn2)nc(-c2ccc(N3CCCC(C(=O)N4CCCC(C(=O)O)C4)C3)nc2)c1 (stereo not shown) [Example 2-28] | 8.52
3 | Cc1cc(Nc2cc(C(F)F)ccn2)nc(-c2ccc(C(C)(C)O)nc2)c1 [Example 1-14] | 8.10
4 | CC(=O)OCCOC(=O)[C@H]1CC[C@H](C(C)(O)c2ccc(-c3cc(C)cc(Nc4cc(C(F)F)ccn4)n3)cn2)CC1 (single isomer, unassigned) [Example 21-6, 2-(acetyloxy)ethyl trans-4-[(1R or 1S)-1-(6-{[4-(difluoromethyl)pyridin-2-yl]amino}-4-methyl-2,3′-bipyridin-6′-yl)-1-hydroxyethyl] cyclohexanecarboxylate] | 7.82
5 | Cc1cc(Nc2cc(C(F)(F)F)ccn2)nc(-c2ccc(NC3CCN(C(=O)c4ccccc4C#N)CC3)nc2)c1 [Example 4-112] | 8.22
6 | Cc1cc(Nc2cc(C(F)(F)F)ccn2)nc(-c2ccc(NC3CCN(C(=O)c4nccc5ccccc45)CC3)nc2)c1 [Example 4-65] | 7.70
7 | Cc1cc(Nc2cc(C(F)(F)F)ccn2)nc(-c2ccc(NC3CCN(C(=O)c4cc5ccccc5cn4)CC3)nc2)c1 [Example 4-61] | 8.40
8 | Cc1cc(Nc2cc(C(F)(F)F)ccn2)nc(-c2ccc(NC3CCN(C(=O)c4n[nH]c5ccccc45)CC3)nc2)c1 [Example 4-86] | 8.15
9 | COc1ccc(C(=O)N2CCC(Nc3ccc(-c4cc(C)cc(Nc5cc(C(F)(F)F)ccn5)n4)cn3)CC2)cc1 [Example 4-93] | 8.30
10 | Cc1cc(Nc2cc(C(F)(F)F)ccn2)nc(-c2ccc(NC3CCN(C(=O)c4cccc5c4C(=O)c4ccccc4-5)CC3)nc2)c1 [Example 4-43] | 7.54
11 | Cc1cc(Nc2cc(C(F)(F)F)ccn2)nc(-c2ccc(NC3CCN(C(=O)c4cnc5ccccc5c4)CC3)nc2)c1 [Example 4-92] | 8.40
12 | Cc1cc(Nc2cc(C(F)(F)F)ccn2)nc(-c2ccc(NC3CCN(C(=O)c4cccc(C(N)=O)c4)CC3)nc2)c1 [Example 4-27] | 8.52
13 | Cc1cc(Nc2cc(C(F)(F)F)ccn2)nc(-c2ccc(NC3CCN(C(=O)c4cnc5ccccn45)CC3)nc2)c1 [Example 4-63] | 8.15
14 | COC(=O)[C@H]1CC[C@H](C(C)(O)c2ccc(-c3cc(C)cc(Nc4cc(C(F)F)ccn4)n3)cn2)CC1 (single isomer, unassigned) [Example 11, Methyl trans-4-[(1R or 1S)-(6-{[4-(difluoromethyl)pyridin-2-yl]amino}-4-methyl-2,3′-bipyridin-6′-yl)-1-hydroxyethyl]cyclohexanecarboxylate] | 8.05
15 | CCOC(=O)OC(C)OC(=O)[C@H]1CC[C@H](C(C)(O)c2ccc(-c3cc(C)cc(Nc4cc(C(F)F)ccn4)n3)cn2)CC1 (single isomer, unassigned) [Example 20-5, 1-[(ethoxycarbonyl)oxy] ethyl trans-4-[(1R or 1S)-1-(6-{[4-(difluoromethyl)pyridin-2-yl]amino}-4-methyl-2,3′-bipyridin-6′-yl)-1-hydroxyethyl] cyclohexanecarboxylate] | 7.49
16 | Cc1cc(Nc2cc(C(F)(F)F)ccn2)nc(-c2ccc(NC3CCN(C(=O)c4cccc(-n5cccn5)c4)CC3)nc2)c1 [Example 4-36] | 8.00
17 | Cc1ccnc(Nc2cc(C)cc(-c3ccc(F)nc3)n2)c1 [Example 1-2] | 6.95
18 | Nc1cc(Nc2cc(C(F)(F)F)ccn2)nc(-c2ccc(NC3CCNC3=O)nc2)c1 (stereo not shown) [Example 2, 3-[(4-Amino-6-{[4-(trifluoromethyl)pyridin-2-yl]amino}-2,3′-bipyridin-6′-yl)amino]pyrrolidin-2-one] | 8.40
19 | Cc1cc(Nc2cc(C(F)(F)F)ccn2)nc(-c2ccc(N3CCCC3C(=O)O)nc2)c1 (stereo not shown) [Example 2-10] | 8.52
20 | Cc1cc(Nc2cc(C(F)(F)F)ccn2)nc(-c2ccc(NC3CCN(C(=O)c4cn(Cc5ccccc5)c5ccccc45)CC3)nc2)c1 [Example 4-60] | 6.37
21 | Cc1cc(Nc2cc(C(F)(F)F)ccn2)nc(-c2ccc(NC3CCN(C(=O)Cc4cccc5ncccc45)CC3)nc2)c1 [Example 4-12] | 8.40
22 | Cc1cc(Nc2cc(C(F)(F)F)ccn2)nc(-c2ccc(NC3CCN(C(=O)Cc4cccnc4)CC3)nc2)c1 [Example 4-77] | 9.00
23 | Cc1cc(Nc2cc(C(F)(F)F)ccn2)nc(-c2ccc(NC3CCC(C(=O)O)CC3)nc2)c1 (stereo not shown) [Example 2-24] | 9.00
24 | COC(=O)COC(=O)[C@H]1CC[C@H](C(C)(O)c2ccc(-c3cc(C)cc(Nc4cc(C(F)F)ccn4)n3)cn2)CC1 (single isomer, unassigned) [Example 19-17, 2-methoxy-2-oxoethyl trans-4-[(1R or 1S)-1-(6-{[4-(difluoromethyl)pyridin-2-yl]amino}-4-methyl-2,3′-bipyridin-6′-yl)-1-hydroxyethyl] cyclohexanecarboxylate] | 8.37
25 | COc1ccccc1C(=O)N1CCC(Nc2ccc(-c3cc(C)cc(Nc4cc(C(F)(F)F)ccn4)n3)cn2)CC1 [Example 4-87] | 8.22
26 | Cc1cc(Nc2cc(C(F)(F)F)ccn2)nc(-c2ccc(NC3CCN(C(=O)c4ccc5nc(C)sc5c4)CC3)nc2)c1 [Example 4-78] | 8.40

Row | SMILES | pIC50
27 | Cc1cc(Nc2cc(C(F)(F)F)ccn2)nc(-c2ccc(NC3CCC(C(=O)O)CC3)nc2)c1 (stereo not shown) [Example 2-25] | 8.15
28 | Cc1cc(Nc2cc(C(F)(F)F)ccn2)nc(-c2ccc(C3(O)CCN(C(=O)c4c[nH]c5cc(C)ccc45)CC3)nc2)c1 [Example 9-3] | 8.00
29 | Cc1cc(Nc2cc(C(F)(F)F)ccn2)nc(-c2ccc(NC3CCN(C(=O)c4cccc5cccnc45)CC3)nc2)c1 [Example 4-45] | 8.15
30 | COC(=O)C1CCC(O)(c2ccc(-c3cc(C)cc(Nc4cc(C(F)(F)F)ccn4)n3)cn2)CC1(C)C (single isomer, unassigned) [Example 1-9] | 7.00
31 | Cc1cc(Nc2cc(C(F)(F)F)ccn2)nc(-c2ccc(N3CCN(C(=O)N4CCCC(C(=O)O)C4)CC3)nc2)c1 (stereo not shown) [Example 2-20] | 8.70
32 | CC(=O)Nc1ccc(C(=O)N2CCC(Nc3ccc(-c4cc(C)cc(Nc5cc(C(F)(F)F)ccn5)n4)cn3)CC2)cc1 [Example 4-79] | 8.40
33 | Cc1cc(Nc2cc(C(F)(F)F)ccn2)nc(-c2ccc(NC3CCN(C(=O)c4ccc5[nH]cc(C)c5c4)CC3)nc2)c1 [Example 4-7] | 8.00
34 | Cc1cc(Nc2cc(C(F)(F)F)ccn2)nc(-c2ccc(NC3CCN(C(=O)c4cccc(C(F)(F)F)c4)CC3)nc2)c1 [Example 4-40] | 6.99
35 | CCc1ccc(OCC(=O)N2CCC(Nc3ccc(-c4cc(C)cc(Nc5cc(C(F)(F)F)ccn5)n4)cn3)CC2)cc1 [Example 4-56] | 7.41
36 | Cc1cc(Nc2cc(C(F)(F)F)ccn2)nc(-c2ccc(NC3CCN(C(=O)Cc4cn(C)c5ccccc45)CC3)nc2)c1 [Example 4-102] | 8.15
37 | Cc1cc(Nc2cc(C(F)(F)F)ccn2)nc(-c2ccc(NC3CCN(C(=O)Cc4ccc(Oc5ccccc5)cc4)CC3)nc2)c1 [Example 4-57] | 6.76
38 | Cc1cc(Nc2cc(C(F)(F)F)ccn2)nc(-c2ccc(NC3CCN(C(=O)c4cccc5c6c([nH]c45)CCCC6)CC3)nc2)c1 [Example 4-119] | 7.72
39 | Cc1cc(Nc2cc(C(F)(F)F)ccn2)nc(-c2ccc(NC3CCN(C(=O)c4ccccc4Cl)CC3)nc2)c1 [Example 4-71] | 7.68
40 | Cc1cc(Nc2cc(C(F)(F)F)ccn2)nc(-c2ccc(N3CCC3C(=O)O)nc2)c1 (stereo not shown) [Example 2-11] | 8.52
41 | Cc1cc(Nc2cc(C(F)(F)F)ccn2)nc(-c2ccc(N3CC[C@H](N)C3)nc2)c1 [Example 5, 6′-[(3S)-3-aminopyrrolidin-1-yl]-4-methyl-N-[4-(trifluoromethyl)pyridin-2-yl]-2,3′-bipyridin-6-amine] | 9.00
42 | Cc1cc(Nc2cc(C(F)(F)F)ccn2)nc(-c2ccc(N3CCCC(NC(=O)OC(C)(C)C)C3)nc2)c1 (stereo not shown) [Example 2-2] | 6.57
43 | CCCCOC(=O)C1CCC(C(C)(O)c2ccc(-c3cc(C)cc(Nc4cc(C(F)(F)F)ccn4)n3)cn2)CC1 (stereo not shown) [Example 1-15] | 7.72
44 | Cc1cc(Nc2cc(C(F)(F)F)ccn2)nc(-c2ccc(NC3CCN(C(=O)c4cccc(-c5ccncc5)c4)CC3)nc2)c1 [Example 4-19] | 7.92
45 | Cc1cc(Nc2cc(C(F)(F)F)ccn2)nc(-c2ccc(NC3CCN(C(=O)c4cnc5ccc(C)cc5c4)CC3)nc2)c1 [Example 4-51] | 8.00
46 | Cc1cc(Nc2cc(C(F)(F)F)ccn2)nc(-c2ccc(C3(O)CCN(C(=O)c4cc(-c5ccncc5)[nH]n4)CC3)nc2)c1 [Example 9-6] | 7.92
47 | Cc1cc(Nc2cc(C(F)(F)F)ccn2)nc(-c2ccc(C3(O)CCC(C(=O)O)C(C)(C)C3)nc2)c1 (stereo not shown) [Example 1-25] | 9.00
48 | Cc1cc(Nc2cc(C(F)(F)F)ccn2)nc(-c2ccc(NC3CCN(C(=O)c4ccc(C(N)=O)cc4)CC3)nc2)c1 [Example 4-23] | 8.52
49 | Cc1cc(Nc2cc(C(F)(F)F)ccn2)nc(-c2ccc(NC3CCN(C(=O)Cc4cccc(Cl)c4)CC3)nc2)c1 [Example 4-107] | 7.89
50 | Cc1cc(Nc2cc(C(F)(F)F)ccn2)nc(-c2ccc(NC3CCN(C(=O)c4cccc(O)c4)CC3)nc2)c1 [Example 4-101] | 8.10
51 | Cc1cc(Nc2cc(C(F)(F)F)ccn2)nc(-c2ccc(NC3CCN(C(=O)CCOc4ccccc4)CC3)nc2)c1 [Example 4-76] | 8.00
52 | Cc1cc(Nc2cc(C(F)F)ccn2)nc(-c2ccc(C(C)(O)[C@H]3CC[C@H](C(=O)O)CC3)nc2)c1 (single isomer, unassigned) [Example 12, trans-4-[(1R or 1S)-(6-{[4-(Difluoromethyl)pyridin-2-yl]amino}-4-methyl-2,3′-bipyridin-6′-yl)-1-hydroxyethyl]cyclohexanecarboxylic acid] | > 9.30
